Data set [1] has as its system DAS5G11E7 monoclonal antibody. In kind it is binding, mouse.
A further data set deals with rat. The following applies: in vivo; cited from earlier work.

Compound `CC(=O)OC[C@]12CCC(C)=C[C@H]1O[C@@H]1[C@H](O)[C@@H](OC(C)=O)[C@@]2(C)[C@]12CO2` [DAS, diacetoxyscirpenol] showed a Cross reactivity in data set [1] of 100%. Also, the LDS with rat is recorded as 0.75 mg/kg.

Values taken from patent US12687539B2 (priority 2019, dated 2026).
